Measurements taken from patent US5286737A, “Method for inhibiting aromatase” (Kureha Kagaku Kogyo Kabushiki Kaisha, priority 1992, dated 1994).
Like-named read-outs stand apart in the source and are kept apart here.

What was measured:
mastocarcinoma = test: Inhibition of tumor growth in rats with mastocarcinoma after 7,12-dimethylbenzanthracene; assay type: in vivo, Sprague-Dawley rats; conditions: Rattus norvegicus, 600 h, read-out: I.R. (inhibition rate of tumor growth)
Procedure: Female Sprague-Dawley rates aged 50 days were orally given 7,12-dimethylbenzanthracene (15 mg/kg) and observed for two months. The rats that developed spontaneous mastocarcinoma were selected and divided into three groups of 15 animals.
The first group was administered daily an ip injection for 20 consecutive days in an amount of 20 mg/kg (body weight) of the compounds in a physiological salt solution (10 ml).
The second group was also treated in the same manner as the first group except that 4-hydroxyandrostenedione was used as a positive control.
The third group was administered only an amount of 10 ml of a physiological salt solution.
After 5 days from the last injection, the rats were sacrificed to enucleate tumors.
The tumors were weighed and the mean tumor weight (T) of the first and the second groups was calculated. The mean tumor weight (C) of the third group was also calculated. […] [formula]

aromatase = molecular target: T1, aromatase (Homo sapiens, UniProt P11511); test: Aromatase inhibitory activity (H14COOH release from [19-14C]4-androstene-3,17-dione, human placenta microsomes); assay type: biochemical
T1 construct: microsomes arising from human placenta (0.1 mg/ml, protein concentration); from tissue; host or cells: human placenta microsomes
T1 sequence (P11511 1-503): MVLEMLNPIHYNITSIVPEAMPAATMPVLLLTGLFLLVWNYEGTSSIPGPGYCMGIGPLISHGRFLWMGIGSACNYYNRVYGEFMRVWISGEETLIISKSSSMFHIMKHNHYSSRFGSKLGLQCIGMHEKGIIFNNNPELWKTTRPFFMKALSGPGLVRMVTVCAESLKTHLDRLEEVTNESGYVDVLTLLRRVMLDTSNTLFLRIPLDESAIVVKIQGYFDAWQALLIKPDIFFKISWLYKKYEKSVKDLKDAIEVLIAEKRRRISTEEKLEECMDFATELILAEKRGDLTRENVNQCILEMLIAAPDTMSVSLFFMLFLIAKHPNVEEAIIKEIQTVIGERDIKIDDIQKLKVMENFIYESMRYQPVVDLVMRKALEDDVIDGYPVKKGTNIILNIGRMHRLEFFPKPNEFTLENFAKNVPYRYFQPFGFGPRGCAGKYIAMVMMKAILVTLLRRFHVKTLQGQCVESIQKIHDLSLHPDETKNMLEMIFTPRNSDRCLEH
Procedure: The aromatase inhibitory activity was measured in the manner described by Covey, D. F., Biochem. and Biophys. Res. Commun., 157 (1) 81-86 (1988). The inhibitory activity of the aromatase with the compounds was evaluated in a 50% inhibitory concentration (IC50) of the aromatase activity.
Aromatase activity was measured in the manner described by Covey, D. F., Biochem. Biophys. Res. Commun. 157 (1), 81-86 (1988).
The inhibitory activity of the aromatase with the compounds was evaluated in 50% inhibitory concentration (IC50) of the aromatase.
An aromatase base was taken from microsomes of human placenta and [19-^14 C]4-androstene-3,17 dione was used as a substrate. H^14 COOH was released into a reaction mixture after aromatization and its radioactivity was measured to evaluate the aromatase activity.
The inhibitory activity of the aromatase and the concentration of the compounds were depicted in a graph from which the IC50 was calculated.
To a solution of phosphoric acid buffer, [19-^14 C]4-androstene-3,17-dione (1×10^-6 M, 2 kBq/ml), microsomes arising from human placenta (0.1 mg/ml, protein concentration), coenzyme (2×10^-3 M, […]), glucose-6-phosphoric acid (4×10^-3 M), and glucose-6-phosphoric acid dehydrogenase (4U/ml) were added and reacted under stirring at 37° C. for 30 min.
The compound that was dissolved in DMSO was added into the reaction mixture and the final concentration of MDSO was in the range of 0.1 to 0.55% by volume. Chloroform (5 ml) was then added into the reaction mixture to terminate the reaction and to allow for recovery of the H^14 COOH in a water layer. The collected water layer (0.1 ml) was added in liquid scintillation cocktail (Atomlight, duPont, 4 ml) to measure its radioactivity. 4-Hydroxyandrostenedione was used as a positive control.

[1] = female Sprague-Dawley rats, daily ip 20 mg/kg for 20 consecutive days, tumors weighed 5 days after last injection
[2] = microsomes of human placenta, 0.1 mg/ml protein, substrate [19-14C]4-androstene-3,17-dione 1×10^-6 M, 37° C., 30 min, read-out: 50% inhibitory concentration (IC50) of the aromatase activity

What does the source list for `OC1(Cn2cncn2)CCCC1Cc1ccc(F)cc1` (stereo not shown) [Comp. No. 1, 2-(p-Fluorobenzyl)-1-(1,2,4-triazoly-1-yl-methyl)cyclopentanol]?
inhibition in vivo at 20 mg/kg (mastocarcinoma; [1]): 60%; IC50 (aromatase): 3.5 µM

How did the inhibition in vivo at 20 mg/kg (mastocarcinoma; [1]) turn out when `OC1(Cn2ccnc2)CCCC1Cc1ccc(F)cc1` (stereo not shown) [Comp. No. 2, 2-(-Fluorobenzyl)-1-(imidazoly-1-ylmethyl)cyclopentanol] was run?
The inhibition in vivo at 20 mg/kg was 70%.

What about the IC50 (aromatase) of the same compound?
Its IC50 is 7 µM.

With `OC1(Cn2cncn2)CCCC1Cc1ccc(F)cc1F` (stereo not shown) [Comp. No. 9, 2-(2,4-Difluorobenzyl)-1-(1,2,4-triazoly-1-yl-methyl)cyclopentanol] as the compound, how does the inhibition in vivo at 20 mg/kg (mastocarcinoma; [1]) read?
The inhibition in vivo at 20 mg/kg was 72%.

What about the IC50 (aromatase) of the same compound?
The IC50 was 7.5 µM.

`OC1(Cn2ccnc2)CCCC1Cc1ccc(F)cc1F` (stereo not shown) [Comp. No. 10, 2-(2,4-Difluorobenzyl)-1-(imidazoly-1-yl-methyl)cyclopentanol] was tested. Which inhibition in vivo at 20 mg/kg (mastocarcinoma; [1]) did it give?
Its inhibition in vivo at 20 mg/kg is 85%.

And the IC50 (aromatase)?
The IC50 was 0.48 µM.

`C[C@]12CCC(=O)C(O)=C1CC[C@@H]1[C@@H]2CC[C@]2(C)C(=O)CC[C@@H]12` [Control, 4-Hydroxyandrostenedione, reference compound] was tested. Which IC50 (aromatase) did it give?
The IC50 was 20 µM.

How did the inhibition in vivo at 20 mg/kg (mastocarcinoma; [1]) turn out when `OC1(Cn2cncn2)CCCC1Cc1ccc(Cl)cc1` (stereo not shown) [compound 3] was run?
The inhibition in vivo at 20 mg/kg was 64%.

And the IC50 (aromatase)?
Its IC50 is 3.8 µM.

For `OC1(Cn2ccnc2)CCCC1Cc1ccc(Cl)cc1` (stereo not shown) [compound 4], which inhibition in vivo at 20 mg/kg (mastocarcinoma; [1]) is on record?
Its inhibition in vivo at 20 mg/kg is 74%.

What about the IC50 (aromatase) of the same compound?
Its IC50 is 5 µM.

How did the inhibition in vivo at 20 mg/kg (mastocarcinoma; [1]) turn out when `N#Cc1ccc(CC2CCCC2(O)Cn2cncn2)cc1` (stereo not shown) [compound 5] was run?
Its inhibition in vivo at 20 mg/kg is 60%.

What about the IC50 (aromatase) of the same compound?
Its IC50 is 7.3 µM.

How did the inhibition in vivo at 20 mg/kg (mastocarcinoma; [1]) turn out when `N#Cc1ccc(CC2CCCC2(O)Cn2ccnc2)cc1` (stereo not shown) [compound 6] was run?
The inhibition in vivo at 20 mg/kg was 53%.

And the IC50 (aromatase; [2])?
The IC50 was 4.5 µM.

How did the inhibition in vivo at 20 mg/kg (mastocarcinoma; [1]) turn out when `CC1(C)CCC(Cc2ccccc2-c2ccccc2)C1(O)Cn1ccnc1` (stereo not shown) [compound 7] was run?
The inhibition in vivo at 20 mg/kg was 58%.

What about the IC50 (aromatase; [2]) of the same compound?
Its IC50 is 3.7 µM.

`CC1(C)CCC(Cc2ccc(-c3ccccc3)cc2)C1(O)Cn1ccnc1` (stereo not shown) [compound 8] was tested. Which inhibition in vivo at 20 mg/kg (mastocarcinoma; [1]) did it give?
The inhibition in vivo at 20 mg/kg was 60%.

What about the IC50 (aromatase; [2]) of the same compound?
Its IC50 is 4.1 µM.

`CC(C)(C)c1ccc(CC2CCC(C)(C)C2(O)Cn2cncn2)cc1` (stereo not shown) [compound 11] was tested. Which inhibition in vivo at 20 mg/kg (mastocarcinoma; [1]) did it give?
Its inhibition in vivo at 20 mg/kg is 71%.

And the IC50 (aromatase)?
Its IC50 is 2.6 µM.

Which inhibition in vivo at 20 mg/kg (mastocarcinoma; [1]) does the source give for `CC(C)(C)c1ccc(CC2CCC(C)(C)C2(O)Cn2ccnc2)cc1` (stereo not shown) [compound 12] here?
Its inhibition in vivo at 20 mg/kg is 73%.

And the IC50 (aromatase)?
The IC50 was 4.2 µM.

Which inhibition in vivo at 20 mg/kg (mastocarcinoma; [1]) does the source give for `CC(C)c1ccc(CC2CCC(C)(C)C2(O)Cn2cncn2)cc1` (stereo not shown) [compound 13] here?
Its inhibition in vivo at 20 mg/kg is 55%.

What about the IC50 (aromatase) of the same compound?
Its IC50 is 8.4 µM.

`CC(C)c1ccc(CC2CCC(C)(C)C2(O)Cn2ccnc2)cc1` (stereo not shown) [compound 14] was tested. Which inhibition in vivo at 20 mg/kg (mastocarcinoma; [1]) did it give?
Its inhibition in vivo at 20 mg/kg is 63%.

And the IC50 (aromatase)?
The IC50 was 6 µM.

Which results are given for `CC1(C)CCC(Cc2ccc(Cl)cc2)C1(O)Cn1cncn1` (stereo not shown) [compound 15]?
inhibition in vivo at 20 mg/kg (mastocarcinoma; ip): 74%; IC50 (aromatase): 4.7 µM

Which results are given for `CC1(C)CCC(Cc2ccc(Cl)cc2)C1(O)Cn1ccnc1` (stereo not shown) [compound 16]?
inhibition in vivo at 20 mg/kg (mastocarcinoma; [1]): 83%; IC50 (aromatase): 0.3 µM

Which inhibition in vivo at 20 mg/kg (mastocarcinoma; [1]) does the source give for `CC1(C)CCC(Cc2ccc(F)cc2F)C1(O)Cn1ccnc1` (stereo not shown) [compound 17] here?
Its inhibition in vivo at 20 mg/kg is 67%.

What about the IC50 (aromatase) of the same compound?
The IC50 was 0.4 µM.

Which results are given for `CC1(C)CCC(Cc2ccc(C(F)(F)F)cc2)C1(O)Cn1cncn1` (stereo not shown) [compound 18]?
inhibition in vivo at 20 mg/kg (mastocarcinoma; [1]): 65%; IC50 (aromatase): 7.2 µM

Which results are given for `CC1(C)CCC(Cc2ccc(C(F)(F)F)cc2)C1(O)Cn1ccnc1` (stereo not shown) [compound 19]?
inhibition in vivo at 20 mg/kg (mastocarcinoma; [1]): 63%; IC50 (aromatase): 5.5 µM

With `CC(C)c1ccc(CC2CCCC2(O)Cn2cncn2)cc1` (stereo not shown) [compound 20] as the compound, how does the inhibition in vivo at 20 mg/kg (mastocarcinoma; [1]) read?
Its inhibition in vivo at 20 mg/kg is 60%.

What about the IC50 (aromatase) of the same compound?
Its IC50 is 4.3 µM.

`CC(C)c1ccc(CC2CCCC2(O)Cn2ccnc2)cc1` (stereo not shown) [compound 21] was tested. Which inhibition in vivo at 20 mg/kg (mastocarcinoma; [1]) did it give?
The inhibition in vivo at 20 mg/kg was 72%.

What about the IC50 (aromatase; [2]) of the same compound?
The IC50 was 6.3 µM.
